Where “and” joins values, the source holds several entries; their conditions need not be identical. Equal entries are not always repeated.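 How tested: cells in 96-well plates exposed to compound for 48 hours at five concentrations. At the GI50, growth is halved. TGI: total growth inhibition.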
Assays:
Experiment in all cases: NCI anticancer screen, dose series, 48 h
ACHN renal = test system: ACHN renal
COLO 205 colon = test system: COLO 205 colon
HCC-2998 colon = test system: HCC-2998 colon
NCI-H23 lung = test system: NCI-H23 lung
NCI-H460 lung = test system: NCI-H460 lung
OVCAR-5 ovarian = test system: OVCAR-5 ovarian
RPMI-8226 leukemia = test system: RPMI-8226 leukemia
TK-10 renal = test system: TK-10 renal
HOP-62 NSCLC = test system: HOP-62 NSCLC
HT29 colon = test system: HT29 colon

SMILES | TGI (ACHN renal) | TGI (COLO 205 colon) | TGI (HCC-2998 colon) | TGI (NCI-H23 lung) | TGI (NCI-H460 lung) | TGI (OVCAR-5 ovarian) | TGI (RPMI-8226 leukemia) | TGI (TK-10 renal) | GI50 (ACHN renal) [µM] | GI50 (COLO 205 colon) [µM] | GI50 (HCC-2998 colon) [µM] | GI50 (HOP-62 NSCLC) [µM] | TGI (HOP-62 NSCLC) | GI50 (HT29 colon) [µM] | TGI (HT29 colon) | GI50 (NCI-H23 lung) [µM] | GI50 (NCI-H460 lung) [µM] | GI50 (OVCAR-5 ovarian) [µM] | GI50 (RPMI-8226 leukemia) [µM] | GI50 (TK-10 renal) [µM]
CCC1OCCN1C(C)C (configuration not stated) | > 100 µM | > 100 µM | > 100 µM | > 100 µM | > 100 µM | > 100 µM | > 100 µM | > 100 µM | – | – | – | – | – | – | – | – | – | – | – | –
COc1ccc(C2=CC(c3cc(OC)c(OC)c(OC)c3)n3ncnc3N2)cc1 (configuration not stated) | 43.9 µM | 0.16 µM | > 100 µM | 42 µM | 13.7 µM | > 100 µM | 81.3 µM | 31.7 µM | 0.152 | 0.0335 | 0.24 | 0.0588 | 25.2 µM | 0.0381 | 11.2 µM | 0.0875 | 0.0418 | 0.502 | 0.0439 | 13
CCOC(=O)CCC1(C(=O)OC)CCCC1=O (configuration not stated) | > 100 µM | > 100 µM | > 100 µM | > 100 µM | > 100 µM | > 100 µM | > 100 µM | > 100 µM | – | – | – | – | > 100 µM | – | > 100 µM | – | – | – | – | –
CC[C@@]1(OC(=O)CN)C(=O)OCc2c1cc1n(c2=O)Cc2cc3cc(N)ccc3nc2-1 | 0.151 µM | 2.22 µM | – | 0.0246 µM | – | – | – | > 100 µM | < 0.01 | 0.287 | – | < 0.01 | 0.847 µM | 0.127 | > 100 µM | < 0.01 | < 0.01 | 0.15 | – | 2.19
CCCCCCCCCCCCCCCC[N+]1(CC)CCCC1 | 4.43 µM | 0.731 µM | – | – | 1.62 µM | 1.81 µM | – | 1.21 µM | 1.33 | 0.291 | – | 1.03 | 2.52 µM | – | – | – | 0.437 | 0.439 | – | 0.266
Cc1ccc(NC(=O)CCC(=O)C2CC(=O)CC/C2=N\NC(=O)c2cc3ccccc3cc2O)cc1C (configuration not stated) | > 100 µM | 33.3 µM | 50.1 µM | 38 µM | > 100 µM | 56.8 µM | > 100 µM | > 100 µM | – | – | – | – | > 100 µM | – | > 100 µM | – | – | – | – | –
O=C1c2c(O)cccc2C(C(=O)CCCCC(=O)C2c3cccc(O)c3C(=O)c3c(O)cccc32)c2cccc(O)c21 | 1.95 µM and 6.17 µM | 3.36 µM and 2.21 µM | 2.63 µM and 3.14 µM | 1.56 µM and 2.59 µM | 1.35 µM and 1.65 µM | 1.22 µM and 1.85 µM | 1.3 µM and 3.08 µM | 3.65 µM and 8.35 µM | 2.04 | 1.02 | 1.07 | 1.05 | 1.66 µM and 2.52 µM | 1.77 | 1.67 µM and 5.67 µM | 1.25 | – | 0.961 | 1.04 | 2.85
Cc1nn(-c2ccccc2)c2c1C1C(=C(c3ccc(Cl)cc3)N2)C(=O)Nc2ccccc21 (configuration not stated) | > 100 µM | 5.63 µM | 10.6 µM | 47.9 µM | 10.2 µM | 7.68 µM | 4.77 µM | – | 3.51 | 2.49 | 3.43 | 9.88 | > 100 µM | 2.89 | 8.61 µM | 4.46 | 3.17 | 2.27 | 2.17 | –
COc1cc(C(c2cc3c(cc2O)OCO3)N2CCCC2)cc(OC)c1OC (configuration not stated) | 28.8 µM | 26.5 µM | 88.1 µM | 33.1 µM | – | 89.7 µM | 41.5 µM | 37.5 µM | – | – | – | – | 97.5 µM | – | 28 µM | – | – | – | – | –
O=C1C=C(Nc2cccc(Br)c2)c2ccccc2C1=O | > 100 µM | > 100 µM | > 100 µM | – | 25.7 µM | 34.3 µM | > 100 µM | – | 0.957 | > 100 | 12.1 | 2.29 | 26.1 µM | 69.1 | > 100 µM | – | 0.402 | 14.5 | 22.2 | –
Cc1ccc([P+](Cc2ccc([N+](=O)[O-])cc2)(c2ccc(C)cc2)c2ccc(C)cc2)cc1 | 38.4 µM | 3.95 µM | 11.8 µM | – | 16.8 µM | 23.3 µM | 4.86 µM | – | 15.8 | 1.65 | 2.87 | 10.4 | 23.8 µM | 2.51 | 12.8 µM | – | 4.26 | 6.68 | 1.02 | –
CC1OC(=O)N(CCCC=C2SCCCS2)C1=O (configuration not stated) | > 100 µM | > 100 µM | – | > 100 µM | > 100 µM | > 100 µM | > 100 µM | > 100 µM | – | – | – | – | – | – | > 100 µM | – | – | – | – | –
C/C(=N\NS(=O)(=O)c1ccc(C)cc1)c1ccc[n+]([O-])n1 | > 100 µM | – | > 100 µM | > 100 µM | > 100 µM | > 100 µM | > 100 µM | – | – | – | – | – | > 100 µM | – | > 100 µM | – | – | – | – | –
O=C(/C=C/N1CCN(c2cccc(C(F)(F)F)c2)CC1)c1ccc(Cl)cc1Cl | 46.9 µM | > 100 µM | – | 75.3 µM | 97.3 µM | > 100 µM | 70.8 µM | 87.3 µM | 23.4 | 36.2 | – | 19 | 35.4 µM | 38.6 | > 100 µM | 23.2 | 30.9 | 30.6 | 25.9 | 30.1
COc1ccc(C[C@H]2C[C@@H](O)[C@@H](C)C/C=C/Cc3cccc(O)c3C(=O)O2)cn1 | 65.9 µM | > 100 µM | 44.8 µM | 56.8 µM | 96.3 µM | 37.2 µM | – | 72.3 µM | 25.5 | 34 | 17.4 | 18.6 | 40.2 µM | 31 | > 100 µM | 24.2 | 22.7 | 19 | – | 24.5
CC(C)c1ccc(/C=C(\NC(=O)c2ccccc2)c2nc3ccccc3[nH]2)cc1 | > 100 µM | > 100 µM | – | 75.3 µM | > 100 µM | > 100 µM | 45.2 µM | > 100 µM | – | – | – | – | – | – | > 100 µM | – | – | – | – | –

Reference: PubChem BioAssay (NCI)
